Source: ChEMBL document CHEMBL5725494, “S1P receptors modulators and their use thereof” (2017)

Assays:
[1] = molecular target: Sphingosine 1-phosphate receptor 3 (Homo sapiens, UniProt Q99500); assay: (§1) S1P Assay: Selected Compounds of the Examples were evaluated at Millipore Corporation, USA, using S1P1 receptor; [35S]-GTPgamaS binding assay. A [35S]-GTPgamaS binding assay at Millipore was conducted by GPCR Profiler¿ Custom Service Laboratory, Temecula, Calif., Millipore, Inc. to monitor dose-dependent agonist selectivity for selected Examples against the S1P1 receptors. The assay was completed with sample compounds subjected to an eight-point, four-fold dose response curve with starting concentration of 10 μM. Selectivity was determined upon initial addition of compounds followed by a 30 minute incubation at 30° C. Following compound incubation, bounded [35S]-GTPgamaS was determined by filtration and scintillation counting. Independently, selected compounds were evaluated for S1P1 and S1P3 agonistic activity. The S1P1 assay system was GTPgama-S35 binding in membranes from CHO K1 cells, expressing S1P1 human receptor. The S1P3 assay system was calcium mobilization in CHO K1 cells expressing S1P3 human receptor. There was no significant background response to S1P in the CHO K1 cells with either assay. Compounds were tested initially at a concentration of 10 μM.; type: cell membranes
[2] = molecular target: Sphingosine 1-phosphate receptor 1 (Homo sapiens, UniProt P21453); assay: as §1; type: cell membranes
Sequence of Sphingosine 1-phosphate receptor 1 (P21453 whole entry): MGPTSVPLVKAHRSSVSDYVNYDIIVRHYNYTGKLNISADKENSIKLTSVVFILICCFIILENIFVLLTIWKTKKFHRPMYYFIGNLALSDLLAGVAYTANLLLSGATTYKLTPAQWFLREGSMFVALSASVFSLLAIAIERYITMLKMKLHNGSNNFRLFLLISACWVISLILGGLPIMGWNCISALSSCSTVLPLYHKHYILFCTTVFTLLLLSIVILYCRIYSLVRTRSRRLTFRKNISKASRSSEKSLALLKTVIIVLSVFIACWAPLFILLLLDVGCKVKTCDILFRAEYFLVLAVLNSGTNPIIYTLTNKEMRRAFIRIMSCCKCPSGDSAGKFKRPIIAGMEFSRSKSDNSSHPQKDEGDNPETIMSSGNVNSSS

Sequence of Sphingosine 1-phosphate receptor 3 (Q99500 whole entry): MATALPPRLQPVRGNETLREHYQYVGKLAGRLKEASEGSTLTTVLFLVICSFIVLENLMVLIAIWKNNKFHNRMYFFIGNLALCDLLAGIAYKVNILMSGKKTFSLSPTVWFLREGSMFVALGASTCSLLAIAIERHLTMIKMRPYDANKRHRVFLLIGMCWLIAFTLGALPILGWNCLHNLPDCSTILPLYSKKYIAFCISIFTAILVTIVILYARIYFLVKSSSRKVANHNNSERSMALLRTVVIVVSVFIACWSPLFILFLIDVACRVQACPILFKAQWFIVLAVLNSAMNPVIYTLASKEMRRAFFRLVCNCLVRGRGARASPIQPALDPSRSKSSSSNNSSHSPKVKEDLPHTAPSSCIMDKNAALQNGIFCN

SMILES	EC50 [1] [nM]	EC50 [2] [nM]
CCOc1ccc(-c2nc(-c3ccc4oc(C(N)(CO)CO)cc4c3)no2)cc1OCC	380	57
Cc1ccc(/C=C/c2nc(-c3ccc4oc(C(N)(CO)CO)cc4c3)no2)cc1	–	1820
COc1ccc(COc2ccc(CN3CC(C(=O)O)C3)cc2)cc1C12CC3CC(CC(C3)C1)C2	–	60
CC(C)N(Cc1ccc(-c2ccc(CN3CC(C(=O)O)C3)cc2)cc1)c1ccc(F)cc1	–	600
CCCCCCCCc1ccc(NC(=O)NCCC(=O)O)cc1	–	460
